In patent US11702408B2, “5-membered aza-heterocyclic containing delta-opioid receptor modulating compounds, methods of using and making the same” (Trevena, Inc., priority 2017, dated 2023):

How the values were obtained:
[1] = target: T1, delta-opioid receptor (Accession NP_000902) (Homo sapiens, UniProt P41143); assay: cAMP assay (receptor G-protein mediated response, HTRF); format: cell-based
Method: (§1) Plasmids encoding delta-opioid receptor (Accession NP_000902), mu-opioid receptor (Accession NP_000905) and kappa-opioid receptor (Accession Assession NP_000903) were generated in the pCMV-Prolink backbone and transfected into an EA-arrestin parental human embryonic kidney (HEK-293) cell line from DiscoveRx Corporation. Clonal stable lines were subsequently selected under G418.
Cell lines were grown adherently in Minimum Essential Media (Cellgro cat #10-010-CM) containing 10% fetal bovine serum (Hyclone cat #SH30071.03), 4 mM glutamine (Cellgro cat #25-005-CI), 150 ug/ml hygromycin B (Cellgro cat #30-240-CR), 150 ug/ml G418 (Cellgro cat #30-234-CR), and 50 u/50 ug penicillin/streptomycin (Lonza cat #17-603E). […]
Receptor G-protein mediated responses were determined by measuring changes in intracellular cAMP using CisBio HTRF cAMP HiRange kit (cat #62AM6PEJ) based on time-resolved fluorescence resonance energy transfer (TR-FRET). […] Following a 30 minute incubation at 37° C. the components of the cAMP HiRange kit were added as directed and the plates were read after 1 hour on a BMG PheraStar plate reader. Responses were measured as the ratio of fluorescence at 665 nm/620 nm per manufacturer's instructions.

[2] = target: T1, delta-opioid receptor (Accession NP_000902); assay: β-arrestin recruitment assay (DiscoveRx PathHunter); format: cell-based; conditions: β-arrestin pathway, HEK-293 stable line
Method: as §1
Cell lines were grown adherently in Minimum Essential Media (Cellgro cat #10-010-CM) containing 10% fetal bovine serum (Hyclone cat #SH30071.03), 4 mM glutamine (Cellgro cat #25-005-CI), 150 ug/ml hygromycin B (Cellgro cat #30-240-CR), 150 ug/ml G418 (Cellgro cat #30-234-CR), and 50 u/50 ug penicillin/streptomycin (Lonza cat #17-603E). Prior to the assay cells were removed from the flasks with CellStripper (Cellgro cat #25-056-CI), repeatedly pipetted to disperse cells, and spun at low speed for 5 min at room temperature. Cells were then resuspended at 250,000 cells/ml in growth media and plated at 5,000 cells/well in 384 well plates (Greiner part #784080). […]
Receptor mediated beta-arrestin recruitment was determined using the DiscoveRx β-arrestin PathHunter Detection kit (cat #93-0001). […] Following a 60 minute incubation at 37° C. the components of the DiscoveRx β-arrestin PathHunter Detection kit were added as directed and the plates were read after 1 hour on a BMG PheraStar plate reader.

adult male C57 mice = assay: Tail suspension test (TST); format: in vivo, mouse; conditions: TST route sc, p < 0.05 compared to vehicle-treated mice
Method: The experiments were performed using adult male C57 mice (6-10 weeks of age, 20-30 g, Hilltop Lab, PA). The mice were housed in standard rodent cages with stainless steel mesh wire bar lids in groups of 4 with controlled temperature and light cycle (6:00 a.m.-6:00 p.m.). Animals were given free access to food (Harlan Teklad Global 18% protein (Madison, Wis.)) and water during a minimum 2-day habituation period to the laboratory. Animals that were used in the study were handled, housed, and sacrificed (using compressed CO2) in accord with the current NIH guidelines regarding the use and care of laboratory animals, and all applicable local, state, and federal regulations and guidelines. Animals are identified by cage number, and by markings applied to the proximal tip of the tail using a permanent marker. Group sizes (n=8, and therefore 30-50 animals per study) provide reliable estimates of treatment effects, and this species and strain of mouse has been recognized as appropriate for pharmacology studies.
To measure efficacy of the compounds the compounds were tested using a tail suspension test. The tail suspension test is a behavioral test used to evaluate the efficacy of antidepressant drugs in rodents. In the TST, mice (n=8/group) were suspended by the tail with tape approximately 30-50 cm above the lab bench. Mice are positioned such that the base of their tail is perpendicular to the lab bench. Each mouse is given 1 trial that last 6 minutes. The total duration of immobility is calculated as the percentage of time that the mouse is immobile. The duration of immobility is the main parameter measured. This is calculated from the cumulated time during which the animals is absent of initiated movements including passive swaying. When antidepressant drugs are administered, immobility is decreased by a variety of classes of antidepressant drugs. One or more of the compounds show antidepressant activity.

T1 sequence (P41143 whole entry): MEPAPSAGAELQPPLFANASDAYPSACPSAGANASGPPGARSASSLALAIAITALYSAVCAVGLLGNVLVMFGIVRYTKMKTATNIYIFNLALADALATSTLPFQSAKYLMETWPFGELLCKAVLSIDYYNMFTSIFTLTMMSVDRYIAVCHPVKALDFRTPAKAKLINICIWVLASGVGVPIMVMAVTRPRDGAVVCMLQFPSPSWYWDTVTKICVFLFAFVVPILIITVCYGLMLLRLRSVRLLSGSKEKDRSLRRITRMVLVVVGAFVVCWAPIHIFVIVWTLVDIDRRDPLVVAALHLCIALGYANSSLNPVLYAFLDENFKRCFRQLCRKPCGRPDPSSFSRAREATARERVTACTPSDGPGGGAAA

## Fc1ccc([C@@H]2CCNC[C@H]2COc2ccc3c(c2)OCO3)cc1 [Paroxetine, paroxetine]
[1]; G-protein (cAMP) pathway, HEK-293 stable line
  hDOR G Span: <100
[1]; versus mu- and kappa-opioid receptor
  selectivity for the delta-opioid receptor: non-selective agonist
[2]
  hDOR B Span: <100
[2]; read-out: hDOR B pEC50 (converted)
  EC50: > 1000 nM

## CCCN1C[C@@H](COc2ccc3c(c2)C(=O)NC3)[C@H](c2ccc(F)cc2)C1 [Compound A0090]
Adult male C57 mice
  Active TST Dose: ≤10 mg/kg

## CCCN1C[C@@]2(COc3ccc4c(c3)C(=O)NC4)C[C@@]2(c2cccc(F)c2)C1 [Compound A0128]
Adult male C57 mice; po
  Active TST Dose: ≤30 mg/kg

## CCCN1C[C@H](COc2ccc3c(c2)C(=O)NC3)[C@H](c2ccc(F)cc2)C1 [Compound A0073]
Adult male C57 mice
  Active TST Dose: ≤30 mg/kg

## O=C1NCc2ccc(OC[C@@H]3CN(CC4CC4)C[C@H]3c3ccc(F)cc3)cc21 [Compound A0105]
Adult male C57 mice
  Active TST Dose: ≤10 mg/kg

## COc1ccc([C@@H]2CN(CC3CC3)C[C@@H]2COc2ccc3c(c2)C(=O)NC3)cc1F [Compound A0116]
Adult male C57 mice; po
  Active TST Dose: ≤30 mg/kg

## CCCN1C[C@H](COc2ccc3c(c2)C(=O)NC3)[C@H](c2ccccc2)C1 [Compound A0095]
Adult male C57 mice
  Active TST Dose: ≤10 mg/kg

## CCCN1C[C@H](COc2ccc3c(c2)C(=O)NC3)[C@H](c2ccc(OCCN3C(=O)CCC3=O)cc2)C1 [Compound A0113]
Adult male C57 mice
  Active TST Dose: ≤10 mg/kg

## CCCN1C[C@H](COc2ccc3c(c2)C(=O)NC3)[C@H](c2ccc(F)c(F)c2)C1 [Compound A0108]
Adult male C57 mice
  Active TST Dose: ≤10 mg/kg

## CCCN1C[C@H](COc2ccc3c(c2)C(=O)NC3)[C@@H](c2ccc(F)cc2)C1 [Compound A0045]
Adult male C57 mice
  Active TST Dose: ≤10 mg/kg
